Reference: patent US20120211082A1, “PHOTOELECTRIC CONVERSION DEVICE AND SOLAR CELL USING THE SAME” (MITSUBISHI CHEMICAL CORPORATION, priority 2009, published 2012)

Assay: Solubility of fullerene compounds in toluene
Format: physicochemical
Conditions: mixed at 40° C., returned to 25° C.
Protocol: With regard to the solubility of various fullerene compounds, a powder of a fullerene derivative and toluene were mixed at 40° C. The amount of toluene used at this time was a minimum amount at which dissolution was confirmed at 40° C. Thereafter, temperature was returned to 25° C. and no precipitation was confirmed. The concentration of the toluene on this occasion was regarded as the solubility. In the case where precipitation was observed, toluene was further added until dissolution, and the concentration of the toluene at the time when dissolution was finally confirmed was regarded as the solubility.
For `c12c3c4c5c1c1c6c7c2c2c8c3c3c9c4c4c%10c5c5c1c1c6c6c%11c7c2c2c7c8c3c3c8c9c4c4c9c%10c5c5c1c1c6c6c%11c2c2c7c3c3c8c4c4c9c5c1c1c6c2c3c41` [C60, fullerene], the “Solubility (% by weight)” value was 0.3 % by weight.
With “1-(3-methoxycarbonyl)propyl-1-phenyl(6,6)-C60 [PCBM]” the “Solubility (% by weight)” value was 1.5 % by weight.

Assay: Solubility of buffer material in methanol at room temperature
Format: physicochemical
Conditions: not given
For `Cc1cc(-c2ccccc2)c2ccc3c(-c4ccccc4)cc(C)nc3c2n1` [BCP, 2,9-dimethyl-4,7-diphenyl-1,10-phenanthroline], the “Solubility (MeOH, room temperature)/% by weight” value was 0.1 % by weight.
For `O=P(c1ccccc1)(c1ccccc1)c1cccc(-c2cc(-c3ccccc3)cc(-c3cccc(P(=O)(c4ccccc4)c4ccccc4)c3)n2)c1` [PO(TPP)PO], the “Solubility (MeOH, room temperature)/% by weight” value was >8 % by weight.
With `c1ccc(-n2c(-c3cc(-c4nc5ccccc5n4-c4ccccc4)cc(-c4nc5ccccc5n4-c4ccccc4)c3)nc3ccccc32)cc1` [TPBi] the “Solubility (MeOH, room temperature)/% by weight” value was <0.01 % by weight.
With `O=P(c1ccccc1)(c1ccc2ccc3cccc4ccc1c2c34)c1ccc2ccc3cccc4ccc1c2c34` [POPy2] the “Solubility (MeOH, room temperature)/% by weight” value was <0.01 % by weight.
With `O=P(c1ccccc1)(c1ccccc1)c1ccc2c(c1)c1cc(P(=O)(c3ccccc3)c3ccccc3)ccc1n2-c1ccccc1` [POCzPO] the “Solubility (MeOH, room temperature)/% by weight” value was >8 % by weight.
For `O=P(c1ccccc1)(c1ccccc1)c1ccc2c(c1)C1(c3ccccc3-c3ccccc31)c1cc(P(=O)(c3ccccc3)c3ccccc3)ccc1-2` [POSFPO], the “Solubility (MeOH, room temperature)/% by weight” value was 0.5 % by weight.
For `O=P(c1ccccc1)(c1ccccc1)c1ccccc1` [POPh3], the “Solubility (MeOH, room temperature)/% by weight” value was >5.0 % by weight.
With `O=P(c1ccccc1)(c1ccccc1)c1c(F)c(F)c(-c2c(F)c(F)c(P(=O)(c3ccccc3)c3ccccc3)c(F)c2F)c(F)c1F` [POFBPO] the “Solubility (MeOH, room temperature)/% by weight” value was 1 % by weight.
With `c1ccc(-c2cc(-c3ccc4ccccc4c3)nc3c2ccc2c(-c4ccccc4)cc(-c4ccc5ccccc5c4)nc23)cc1` [NBPhen] the “Solubility (MeOH, room temperature)/% by weight” value was <0.01 % by weight.
For `O=P(c1ccccc1)(c1ccccc1)c1ccc2ccccc2c1-c1c(P(=O)(c2ccccc2)c2ccccc2)ccc2ccccc12` [BINAPO], the “Solubility (MeOH, room temperature)/% by weight” value was 4 % by weight.

Assay: Solubility in THF noted during cyclic voltammetry
Format: physicochemical
Conditions: cyclic voltammetry conditions
Protocol: Thus, using a mixed solvent of o-dichlorobenzene and acetonitrile (4:1, volume ratio) instead of THF, the cyclic voltammetry was performed.
For `c12c3c4c5c1c1c6c7c2c2c8c3c3c9c4c4c%10c5c5c1c1c6c6c%11c7c2c2c7c8c3c3c8c9c4c4c9c%10c5c5c1c1c6c6c%11c2c2c7c3c3c8c4c4c9c5c1c1c6c2c3c41` [C60, fullerene], the “Solubility in THF” value was “sparingly soluble”.
